Legend:
Experiment in all cases: Competitive isoTOP-ABPP in situ (fragment-treated cells)
Type in all cases: cell-based
[1] = target: T1, cysteines in MDA-MB-231 and Ramos cells (Homo sapiens, UniProt Q9NQC3)
T1 sequence (Q9NQC3 1-1192): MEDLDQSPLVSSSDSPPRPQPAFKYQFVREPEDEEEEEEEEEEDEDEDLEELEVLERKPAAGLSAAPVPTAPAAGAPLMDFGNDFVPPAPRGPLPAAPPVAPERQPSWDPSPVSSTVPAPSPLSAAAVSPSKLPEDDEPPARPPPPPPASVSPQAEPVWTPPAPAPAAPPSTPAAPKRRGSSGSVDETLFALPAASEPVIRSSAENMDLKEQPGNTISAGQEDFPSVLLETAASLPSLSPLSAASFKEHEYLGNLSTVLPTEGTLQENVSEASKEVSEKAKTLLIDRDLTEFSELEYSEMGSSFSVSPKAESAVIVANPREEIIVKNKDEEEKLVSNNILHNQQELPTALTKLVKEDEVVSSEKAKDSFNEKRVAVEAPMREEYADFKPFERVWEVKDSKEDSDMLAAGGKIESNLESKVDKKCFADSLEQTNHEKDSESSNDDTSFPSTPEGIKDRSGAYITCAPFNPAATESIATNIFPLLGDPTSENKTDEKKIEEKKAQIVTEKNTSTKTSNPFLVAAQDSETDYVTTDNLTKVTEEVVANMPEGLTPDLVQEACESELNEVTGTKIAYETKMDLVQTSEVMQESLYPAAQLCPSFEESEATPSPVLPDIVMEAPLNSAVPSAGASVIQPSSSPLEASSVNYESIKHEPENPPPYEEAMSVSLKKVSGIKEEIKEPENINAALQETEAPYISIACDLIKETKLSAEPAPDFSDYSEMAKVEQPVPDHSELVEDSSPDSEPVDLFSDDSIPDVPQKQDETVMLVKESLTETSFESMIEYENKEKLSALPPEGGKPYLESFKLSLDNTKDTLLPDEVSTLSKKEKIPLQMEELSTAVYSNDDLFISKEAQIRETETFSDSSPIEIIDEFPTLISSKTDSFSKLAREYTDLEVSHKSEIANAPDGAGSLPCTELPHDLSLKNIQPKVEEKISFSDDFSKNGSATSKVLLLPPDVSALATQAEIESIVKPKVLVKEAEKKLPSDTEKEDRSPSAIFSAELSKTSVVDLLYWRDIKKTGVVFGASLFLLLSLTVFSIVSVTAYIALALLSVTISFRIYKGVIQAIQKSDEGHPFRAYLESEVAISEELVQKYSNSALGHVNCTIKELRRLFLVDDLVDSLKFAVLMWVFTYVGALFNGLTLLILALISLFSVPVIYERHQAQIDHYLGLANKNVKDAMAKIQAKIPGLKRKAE

[2] = target: cysteines in MDA-MB-231 and Ramos cells (Homo sapiens, UniProt Q9NUY8)
[3] = target: cysteines in MDA-MB-231 and Ramos cells (Homo sapiens, UniProt P15121)
[4] = target: cysteines in MDA-MB-231 and Ramos cells (Homo sapiens, UniProt P83731)
[5] = target: T2, cysteines in MDA-MB-231 and Ramos cells (Homo sapiens, UniProt Q9NQR4)
T2 sequence (Q9NQR4 1-276): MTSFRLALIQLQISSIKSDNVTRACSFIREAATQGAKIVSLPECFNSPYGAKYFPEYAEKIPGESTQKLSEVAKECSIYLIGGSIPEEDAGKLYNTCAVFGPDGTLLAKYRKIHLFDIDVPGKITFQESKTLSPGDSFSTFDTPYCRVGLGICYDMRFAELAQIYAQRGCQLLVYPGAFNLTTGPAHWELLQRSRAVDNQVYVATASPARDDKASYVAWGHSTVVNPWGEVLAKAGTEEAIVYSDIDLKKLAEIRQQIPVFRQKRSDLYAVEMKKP

[6] = target: T3, cysteines in MDA-MB-231 and Ramos cells (Homo sapiens, UniProt Q96RN5)
T3 sequence (Q96RN5 1-788): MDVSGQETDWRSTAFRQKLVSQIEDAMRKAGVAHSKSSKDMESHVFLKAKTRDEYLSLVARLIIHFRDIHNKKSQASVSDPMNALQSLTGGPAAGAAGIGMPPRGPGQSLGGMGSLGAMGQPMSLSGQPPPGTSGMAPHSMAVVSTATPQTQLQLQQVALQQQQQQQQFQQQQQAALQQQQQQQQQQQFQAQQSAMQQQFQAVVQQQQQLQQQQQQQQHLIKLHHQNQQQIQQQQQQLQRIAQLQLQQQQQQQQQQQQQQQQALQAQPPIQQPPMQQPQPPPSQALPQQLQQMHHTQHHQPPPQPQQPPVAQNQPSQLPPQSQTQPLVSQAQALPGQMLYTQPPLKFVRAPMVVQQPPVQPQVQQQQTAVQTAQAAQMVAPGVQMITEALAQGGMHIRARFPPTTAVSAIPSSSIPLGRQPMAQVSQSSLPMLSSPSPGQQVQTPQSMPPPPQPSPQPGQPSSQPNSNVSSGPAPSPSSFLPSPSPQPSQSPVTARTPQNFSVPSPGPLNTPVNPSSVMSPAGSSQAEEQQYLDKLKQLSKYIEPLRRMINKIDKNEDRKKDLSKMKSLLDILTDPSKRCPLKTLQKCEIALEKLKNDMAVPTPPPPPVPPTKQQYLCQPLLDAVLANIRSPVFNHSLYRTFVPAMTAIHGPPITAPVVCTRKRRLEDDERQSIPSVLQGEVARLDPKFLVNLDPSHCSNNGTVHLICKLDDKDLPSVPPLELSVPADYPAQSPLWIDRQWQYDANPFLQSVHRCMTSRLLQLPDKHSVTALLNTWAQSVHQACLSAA

[7] = target: T4, cysteines in MDA-MB-231 and Ramos cells (Homo sapiens, UniProt O95229)
T4 sequence (O95229 1-277): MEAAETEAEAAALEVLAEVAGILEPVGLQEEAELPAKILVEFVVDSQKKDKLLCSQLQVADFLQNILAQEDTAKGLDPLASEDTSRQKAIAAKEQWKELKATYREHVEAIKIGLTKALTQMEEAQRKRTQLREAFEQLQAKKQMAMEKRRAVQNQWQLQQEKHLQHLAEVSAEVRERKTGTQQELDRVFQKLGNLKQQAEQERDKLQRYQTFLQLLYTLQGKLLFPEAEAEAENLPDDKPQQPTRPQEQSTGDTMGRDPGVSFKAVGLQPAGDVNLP

Chain of cysteines in MDA-MB-231 and Ramos cells (Homo sapiens, UniProt Q9NUY8) (Q9NUY8 whole entry): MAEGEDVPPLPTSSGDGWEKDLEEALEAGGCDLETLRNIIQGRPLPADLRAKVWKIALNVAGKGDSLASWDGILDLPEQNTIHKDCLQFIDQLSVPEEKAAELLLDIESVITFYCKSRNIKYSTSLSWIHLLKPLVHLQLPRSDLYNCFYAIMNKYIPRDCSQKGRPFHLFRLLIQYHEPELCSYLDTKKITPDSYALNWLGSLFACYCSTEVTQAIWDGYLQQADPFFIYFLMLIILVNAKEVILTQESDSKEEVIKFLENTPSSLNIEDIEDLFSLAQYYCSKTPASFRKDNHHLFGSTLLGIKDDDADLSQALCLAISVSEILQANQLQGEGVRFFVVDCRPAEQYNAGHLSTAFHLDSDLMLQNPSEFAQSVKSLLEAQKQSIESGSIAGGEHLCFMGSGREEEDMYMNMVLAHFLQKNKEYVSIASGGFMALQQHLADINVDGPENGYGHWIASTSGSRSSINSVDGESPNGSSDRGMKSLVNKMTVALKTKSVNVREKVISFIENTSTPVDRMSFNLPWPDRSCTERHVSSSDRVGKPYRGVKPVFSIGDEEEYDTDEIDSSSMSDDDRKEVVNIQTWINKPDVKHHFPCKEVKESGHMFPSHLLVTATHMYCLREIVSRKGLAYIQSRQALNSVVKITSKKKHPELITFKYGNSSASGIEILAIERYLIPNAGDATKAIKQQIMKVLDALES

Row | isoTOP-ABPP ratio Q9NQC3_C1101 ([1]; 200 μM, insitu, 231) | isoTOP-ABPP ratio Q9NUY8_C283 ([2]; 200 μM, insitu, 231) | isoTOP-ABPP ratio P15121_C299 ([3]; 200 μM, insitu, 231) | isoTOP-ABPP ratio P83731_C6 ([4]; 200 μM, insitu, 231) | isoTOP-ABPP ratio Q9NQR4_C153 ([5]; 200 μM, insitu, 231) | isoTOP-ABPP ratio O95229_C54 ([7]; 200 μM, insitu, 231) | isoTOP-ABPP ratio Q96RN5_C618 ([6]; 200 μM, insitu, 231) | Structure (SMILES) | also measured
1 | – | – | – | – | – | – | – | COc1ccc2c(c1)CCCN2C(=O)CCl [compound 2] | isoTOP-ABPP reactivity Q9NQC3_C1101 RTN4 ([1]; 200 μM, insitu, 231): 12.0; isoTOP-ABPP reactivity Q9NUY8_C283 TBC1D23 ([2]; 200 μM, insitu, 231): 4.1; isoTOP-ABPP reactivity P15121_C299 AKR1B1 ([3]; 200 μM, insitu, 231): 0.9; isoTOP-ABPP reactivity P83731_C6 RPL24 ([4]; 200 μM, insitu, 231): 2.4; isoTOP-ABPP reactivity Q9NQR4_C153 N1T2 ([5]; 200 μM, insitu, 231): 13.1; isoTOP-ABPP reactivity O96RN5_C618 MED15 ([6]; 200 μM, insitu, 231): 6.4; isoTOP-ABPP reactivity O95229_C54 ZWINT ([7]; 200 μM, insitu, 231): 3.4
2 | – | – | – | – | – | – | – | COc1ccc(C2CC(c3cccs3)=NN2C(=O)CCl)cc1 (centres unmarked) [compound 4] | isoTOP-ABPP reactivity Q9NQC3_C1101 RTN4 ([1]; 100 μM in situ 231): 20.0; isoTOP-ABPP reactivity Q9NUY8_C283 TBC1D23 ([2]; 100 μM in situ 231): 2.1; isoTOP-ABPP reactivity P15121_C299 AKR1B1 ([3]; 100 μM in situ 231): 1.0; isoTOP-ABPP reactivity P83731_C6 RPL24 ([4]; 100 μM in situ 231): 0.7; isoTOP-ABPP reactivity Q9NQR4_C153 N1T2 ([5]; 100 μM in situ 231): 0.7; isoTOP-ABPP reactivity O96RN5_C618 MED15 ([6]; 100 μM in situ 231): 4.5; isoTOP-ABPP reactivity O95229_C54 ZWINT ([7]; 100 μM in situ 231): 12.4
3 | – | – | – | – | – | – | – | COc1cc2c(cc1OC)CN(C(=O)CCl)CC2 [compound 8] | isoTOP-ABPP reactivity Q9NUY8_C283 TBC1D23 ([2]; 200 μM, insitu, 231): 4.9; isoTOP-ABPP reactivity P15121_C299 AKR1B1 ([3]; 200 μM, insitu, 231): 1.7; isoTOP-ABPP reactivity Q9NQR4_C153 N1T2 ([5]; 200 μM, insitu, 231): 20.0; isoTOP-ABPP reactivity O96RN5_C618 MED15 ([6]; 200 μM, insitu, 231): 20.0; isoTOP-ABPP reactivity O95229_C54 ZWINT ([7]; 200 μM, insitu, 231): 3.1
4 | – | – | – | – | – | – | – | O=C(CCl)N1CCC(Cc2ccccc2)CC1 [compound 9] | isoTOP-ABPP reactivity Q9NQC3_C1101 RTN4 ([1]; 200 μM, insitu, 231): 20.0; isoTOP-ABPP reactivity Q9NUY8_C283 TBC1D23 ([2]; 200 μM, insitu, 231): 2.1; isoTOP-ABPP reactivity P15121_C299 AKR1B1 ([3]; 200 μM, insitu, 231): 1.4; isoTOP-ABPP reactivity P83731_C6 RPL24 ([4]; 200 μM, insitu, 231): 4.3; isoTOP-ABPP reactivity Q9NQR4_C153 N1T2 ([5]; 200 μM, insitu, 231): 20.0; isoTOP-ABPP reactivity O95229_C54 ZWINT ([7]; 200 μM, insitu, 231): 3.7
5 | 20.0 | 2.0 | 20.0 | 0.4 | 20.0 | 2.3 | – | O=C(CCl)N1CCN(S(=O)(=O)c2ccccc2F)CC1 [compound 10] | isoTOP-ABPP ratio P83731_C6 ([4]; 200 μM, insitu, ramos): 2.0
6 | – | – | – | – | – | – | – | Cn1cc(S(=O)(=O)N2CCOCC2)cc1C(=O)NC(=O)CCl [compound 11] | isoTOP-ABPP ratio Q9NQC3_C1101 ([1]; 100 μM in situ 231): 1.1; isoTOP-ABPP ratio Q9NUY8_C283 ([2]; 100 μM in situ 231): 1.1; isoTOP-ABPP ratio P15121_C299 ([3]; 100 μM in situ 231): 0.7; isoTOP-ABPP ratio P83731_C6 ([4]; 100 μM in situ 231): 0.5; isoTOP-ABPP ratio Q9NQR4_C153 ([5]; 100 μM in situ 231): 3.7; isoTOP-ABPP ratio Q96RN5_C618 ([6]; 100 μM in situ 231): 1.0; isoTOP-ABPP ratio O95229_C54 ([7]; 100 μM in situ 231): 1.2
7 | 20.0 | 2.9 | 0.7 | 0.3 | 0.9 | 20.0 | 20.0 | O=C(CCl)NC(=O)NC12CC3CC(CC(C3)C1)C2 [compound 12] | –
8 | – | 1.1 | – | 0.7 | 6.2 | 0.8 | 1.0 | O=C(CCl)NCCc1c[nH]c2ccccc12 [compound 13] | isoTOP-ABPP ratio Q9NUY8_C283 ([2]; 200 μM, insitu, ramos): 1.1; isoTOP-ABPP ratio P15121_C299 ([3]; 200 μM, insitu, ramos): 0.8; isoTOP-ABPP ratio P83731_C6 ([4]; 200 μM, insitu, ramos): 1.0; isoTOP-ABPP ratio Q9NQR4_C153 ([5]; 200 μM, insitu, ramos): 12.2; isoTOP-ABPP ratio Q96RN5_C618 ([6]; 200 μM, insitu, ramos): 1.4; isoTOP-ABPP ratio O95229_C54 ([7]; 200 μM, insitu, ramos): 1.4
9 | 2.1 | 0.8 | 2.7 | 1.0 | 0.9 | 0.8 | 1.0 | O=C(CCl)NC12CC3CC(CC(C3)C1)C2 [compound 21] | –
10 | 1.4 | 0.6 | 0.5 | 0.4 | 1.3 | 0.5 | 0.8 | CC(C)CCOCCNC(=O)CCl [compound 27] | –
11 | – | 0.7 | 0.8 | – | – | 0.7 | 0.7 | COc1ccccc1OCCNC(=O)CCl [compound 28] | –
12 | – | – | – | – | – | – | – | O=C(CCl)N1CCN(CC(=O)N2CCOCC2)CC1 [compound 29] | isoTOP-ABPP ratio Q9NUY8_C283 ([2]; 200 μM, insitu, ramos): 1.3; isoTOP-ABPP ratio P15121_C299 ([3]; 200 μM, insitu, ramos): 1.1; isoTOP-ABPP ratio P83731_C6 ([4]; 200 μM, insitu, ramos): 1.6; isoTOP-ABPP ratio Q96RN5_C618 ([6]; 200 μM, insitu, ramos): 1.3; isoTOP-ABPP ratio O95229_C54 ([7]; 200 μM, insitu, ramos): 1.2
13 | 12.8 | 0.6 | 0.8 | – | 0.6 | – | 0.9 | C=CC(=O)N(Cc1cccnc1)c1cc(C(F)(F)F)cc(C(F)(F)F)c1 [compound 31] | isoTOP-ABPP ratio P15121_C299 ([3]; 200 μM, insitu, ramos): 1.3; isoTOP-ABPP ratio Q9NQR4_C153 ([5]; 200 μM, insitu, ramos): 1.4
14 | 20.0 | 1.0 | 1.0 | 2.1 | 1.1 | – | 1.4 | C=CC(=O)Nc1cc(F)c(N2CCN(C(=O)OC(C)(C)C)CC2)c(F)c1 [compound 38] | –
15 | 1.0 | 0.7 | 0.9 | 0.3 | 0.7 | 0.6 | – | Cc1ccc(C=C(C#N)C(=O)NCCN2CCOCC2)cc1 [compound 41] | –
16 | – | 2.7 | 1.0 | 1.2 | 2.0 | – | 20.0 | CC1CCc2ccccc2N1C(=O)CCl (centres unmarked) [compound 45] | –
17 | 1.2 | 2.1 | 0.9 | – | 0.6 | 1.0 | 2.1 | O=C(CCl)Nc1cccc2ncccc12 [compound 51] | –

Reference: US10670605B2, “Cysteine reactive probes and uses thereof” (The Scripps Research Institute, priority 2015, dated 2020)
